The record followed here is patent US20240327364A1, “THERAPEUTIC TARGETING OF GPR68 TO INDUCE FERROPTOSIS” (University Of Maryland, Baltimore, priority 2023, published 2024).

Each structure is given as a SMILES string. Where two headings read alike, the source gives them in different places.

Assay [1] concerns the target T1, ABL1(F317I)-nonphosphorylated (Homo sapiens, UniProt P00519, F317I).
T1 construct: purchased DiscoveRx
Nature of the assay: KinomeScan. It counts as binding. The note with it: read-out: % Control.

A further assay concerns the target T2, ACVR2B (Homo sapiens, UniProt Q13705).
T2 construct: purchased DiscoveRx
Nature of the assay: KinomeScan. In kind it is binding. The conditions noted are these: read-out: % Control.

The target in another assay is T3, AURKA (Homo sapiens, UniProt O14965).
T3 construct: purchased DiscoveRx (Fremont, CA)
Nature of the assay: KinomeScan. It counts as binding. The note with it: read-out: % Control.

For another assay, the target named is T4, AURKC (Homo sapiens, UniProt Q9UQB9).
T4 construct: purchased DiscoveRx (Fremont, CA)
Put plainly: KinomeScan. It counts as binding. The conditions noted are these: read-out: % Control.

Another assay concerns the target T5, CAMK1 (Homo sapiens, UniProt Q14012).
T5 construct: purchased DiscoveRx (KinomeScan service)
Put plainly: KinomeScan. It counts as binding. The conditions noted are these: read-out: % Control.

Another assay concerns the target CDKL5 (Homo sapiens, UniProt O76039). Nature of the assay: KinomeScan. It counts as binding. The conditions noted are these: read-out: % Control.
Another assay deals with T6, MAP4K3 (Homo sapiens, UniProt Q8IVH8).
T6 construct: purchased DiscoveRx (Fremont, CA)
Nature of the assay: KinomeScan. In kind it is binding. The conditions noted are these: read-out: % Control.

The target in another assay is T7, MAPKAPK5 (Homo sapiens, UniProt Q8IW41).
T7 construct: purchased DiscoveRx (Fremont, CA)
Nature of the assay: KinomeScan. It counts as binding. The note with it: read-out: % Control.

Another assay addresses T8, MUSK (Homo sapiens, UniProt O15146).
T8 construct: purchased DiscoveRx
Put plainly: KinomeScan. In kind it is binding. The conditions noted are these: read-out: % Control.

In a further assay the target is T9, NEK9 (Homo sapiens, UniProt Q8TD19).
T9 construct: purchased DiscoveRx
Nature of the assay: KinomeScan. It counts as binding. The conditions noted are these: read-out: % Control.

A further assay concerns the target T10, PCTK2 (Homo sapiens, UniProt Q00537).
T10 construct: purchased DiscoveRx
Put plainly: KinomeScan. The conditions noted are these: read-out: % Control. In kind it is binding.

A further assay deals with T11, PCTK3 (Homo sapiens, UniProt Q07002).
T11 construct: purchased DiscoveRx
Nature of the assay: KinomeScan. In kind it is binding. The note with it: read-out: % Control.

A further assay has as its target T12, PIP5K2C (Homo sapiens, UniProt Q8TBX8).
T12 construct: purchased DiscoveRx (Fremont, CA)
Nature of the assay: KinomeScan. In kind it is binding. The note with it: read-out: % Control.

Assay [2] concerns the target T13, RSK3(Kin.Dom.2-C-terminal) (Homo sapiens, UniProt Q15349).
T13 construct: RSK3(Kin.Dom.2-C-terminal); purchased DiscoveRx (Fremont, CA)
Nature of the assay: KinomeScan. It counts as binding. The note with it: read-out: % Control.

The next assay concerns the target T14, GPR54 (Homo sapiens, UniProt Q969F8).
T14 construct: host or cells: Chem-1 cells with promiscuous Gα15
Nature of the assay: GPCR Profiler. It counts as cell-based.

For a further assay, the system named is HeLa. Put plainly: Cell Titer-Glo viability, Cervical cancer. In kind it is cell-based. The method, then: (§1) OGM2 kills wide variety of cancer cell types. Cell sensitivity can be classified in to Very Sensitive (LC50<2 μM), Sensitive (LC50=2 to 10 μM), Mildly Sensitive (LC50>10 μM), and Refractory (no killing at 10 μM). The listed established cell were incubated with OGM2 at 2 μM or 10 μM for 72 hours under standard cell culture conditions, and relative cell number was assessed using Cell Titer-Glo Luminescent Cell Viability Assay (Promega™) following the manufacturer's instructions. Luminescence was determined using a Cytation 5 reader and Gen5 software package (BioTek™).
(§2) Cancer cells, which are very sensitive to killing by OGM2 (LCs <2 μM), with reported mRNA expression of GPR68 and the related proton sensing receptor GPR4. LC50's (concentrations causing 50% lethality) were determined using CellTiter-Glo (Promega™, G7570). Cells were plated in 12-well plates (CELLTREAT Scientific Products, 229112) in 1 ml of DMEM with high glucose, GlutaMAX, HEPES, or RPMI 1640 with Penicillin-Streptomycin (ThermoFisher™, 10564029, 11875119 and 15140122) and 10% FBS. Cells were incubated overnight at 37° C. in 5% CO2. Then 1 mL of fresh media was added with DMSO, OGM, or positive control (Erastin; APExBIO Technology, LLC, B1524) and cells incubated for 3 days. On the third day, all media was removed, cells were rinsed with 1×PBS, PBS was removed, and 200 μL of 1× Passive Lysis Buffer (Promega™, E1941) was added to each well. […]. Subsequently, 20 μL of lysate was added to 100 μL CellTiter-Glo™ reagent on a LUMITRAC 200 plate (Greiner™ bio-one, 82050-726). Plates were briefly spun down and read on a GloMax-Multi Detection System (Promega™).
The cells listed in the tables above were incubated with OGM2 at 2 μM or 10 μM for 72 hours under standard cell culture conditions, and relative cell number was assessed using Cell Titer-Glo Luminescent Cell Viability Assay (Promega™) following the manufacturer's instructions. Luminescence was determined using a Cytation 5 reader and Gen5 software package (BioTek™). RNA expression of GPR68 and GPR4 in the corresponding cancer cell lines are listed, according to the publicly available The Human Protein Atlas version 22.0 and Ensembl version 103.38 (see proteinatlas.org). The consensus normalized expression value (“nTPM”=normalize transcript per million) was calculated as the maximum nTPM value for each gene in the two data sources.

Assay [3] concerns A549. Nature of the assay: Cell Titer-Glo viability, Lung Adenocarcinoma. It counts as cell-based. The note with it: 72 hours. Here is the method: as §1
as §2, with “Subsequently, 20 μL of lysate was added to 100 μL CellTiter-Glo™ reagent on a LUMITRAC 200 plate (Greiner™ bio-one, 82050-726).” left out
The cells listed in the tables above were incubated with OGM2 at 2 μM or 10 μM for 72 hours under standard cell culture conditions, and relative cell number was assessed using Cell Titer-Glo Luminescent Cell Viability Assay (Promega™) following the manufacturer's instructions. Luminescence was determined using a Cytation 5 reader and Gen5 software package (BioTek™). […] The consensus normalized expression value (“nTPM”=normalize transcript per million) was calculated as the maximum nTPM value for each gene in the two data sources.

Assay [4] relates to A549. Put plainly: Liperfluo lipid peroxidation. It counts as cell-based, human. The conditions noted are these: OGM2 and ionizing radiation. The method, then:
Where appropriate, ANOVA, or student's T-test were conducted in PRISM. Chi squared T(X) was used for Liperfluo analysis. A value T(X)>4 implies that the two distributions are different with a p<0.01 (99% confidence). For drug interaction and therapeutic interaction, the coefficient of drug interaction (CDI) was calculated as follows: CDI=AB/(A×B). According to the impact of each group, AB is the value of combined treatment and A or B is the value of the single agent group to control group.
Radiation, like OGM2, induces lipid peroxidation in addition to DNA damage. OGM was tested for its ability to sensitize lung and pancreatic cancers to radiation induced lipid peroxidation and ferroptosis. Cells were incubated at 37° C. in 5% CO2 in […] DMEM with DMSO, OGM2, or Erastin for 3 days. Then 2.5 μM Liperfluo in 3 ml fresh media was added and cells were incubated at 37° C. in 5% CO2 for 1 hour. Cells were then trypsinized, pelleted, and resuspended in cell sorting media (1% BSA and 1 mM EDTA in PBS pH 7.4). A BD LSR II was used to record Ten thousand events and the data processed with FlowJo v10.8. […] All treatments were highly significant with Chi-squared >4 indicating a p<0.01.

T14 sequence (Q969F8 whole entry, species assumed): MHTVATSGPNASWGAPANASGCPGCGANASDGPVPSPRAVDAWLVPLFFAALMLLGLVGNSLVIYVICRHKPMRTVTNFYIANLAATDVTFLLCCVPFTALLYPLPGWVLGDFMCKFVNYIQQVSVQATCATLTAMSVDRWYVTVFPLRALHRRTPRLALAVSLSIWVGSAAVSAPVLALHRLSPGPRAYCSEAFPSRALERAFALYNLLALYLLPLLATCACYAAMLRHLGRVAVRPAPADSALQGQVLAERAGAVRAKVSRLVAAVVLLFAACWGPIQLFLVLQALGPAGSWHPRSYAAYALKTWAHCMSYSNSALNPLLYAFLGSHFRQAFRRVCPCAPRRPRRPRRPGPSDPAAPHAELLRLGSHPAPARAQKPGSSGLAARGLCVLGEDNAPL
T10 sequence (Q00537 whole entry): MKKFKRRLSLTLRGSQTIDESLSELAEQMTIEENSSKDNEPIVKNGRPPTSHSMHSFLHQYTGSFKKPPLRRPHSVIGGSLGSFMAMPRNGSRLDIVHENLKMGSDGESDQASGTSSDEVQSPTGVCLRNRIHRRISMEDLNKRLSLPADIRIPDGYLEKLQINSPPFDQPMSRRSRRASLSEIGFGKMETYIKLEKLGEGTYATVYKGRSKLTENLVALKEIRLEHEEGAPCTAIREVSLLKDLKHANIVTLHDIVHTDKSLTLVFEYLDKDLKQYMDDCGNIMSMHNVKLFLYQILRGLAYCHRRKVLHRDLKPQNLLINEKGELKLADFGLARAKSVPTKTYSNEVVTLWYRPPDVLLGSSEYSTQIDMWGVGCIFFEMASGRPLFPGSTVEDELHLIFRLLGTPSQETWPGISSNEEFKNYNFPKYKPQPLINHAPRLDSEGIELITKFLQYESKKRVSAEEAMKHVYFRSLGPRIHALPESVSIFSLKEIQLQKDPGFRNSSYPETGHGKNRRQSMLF
T8 sequence (O15146 24-869): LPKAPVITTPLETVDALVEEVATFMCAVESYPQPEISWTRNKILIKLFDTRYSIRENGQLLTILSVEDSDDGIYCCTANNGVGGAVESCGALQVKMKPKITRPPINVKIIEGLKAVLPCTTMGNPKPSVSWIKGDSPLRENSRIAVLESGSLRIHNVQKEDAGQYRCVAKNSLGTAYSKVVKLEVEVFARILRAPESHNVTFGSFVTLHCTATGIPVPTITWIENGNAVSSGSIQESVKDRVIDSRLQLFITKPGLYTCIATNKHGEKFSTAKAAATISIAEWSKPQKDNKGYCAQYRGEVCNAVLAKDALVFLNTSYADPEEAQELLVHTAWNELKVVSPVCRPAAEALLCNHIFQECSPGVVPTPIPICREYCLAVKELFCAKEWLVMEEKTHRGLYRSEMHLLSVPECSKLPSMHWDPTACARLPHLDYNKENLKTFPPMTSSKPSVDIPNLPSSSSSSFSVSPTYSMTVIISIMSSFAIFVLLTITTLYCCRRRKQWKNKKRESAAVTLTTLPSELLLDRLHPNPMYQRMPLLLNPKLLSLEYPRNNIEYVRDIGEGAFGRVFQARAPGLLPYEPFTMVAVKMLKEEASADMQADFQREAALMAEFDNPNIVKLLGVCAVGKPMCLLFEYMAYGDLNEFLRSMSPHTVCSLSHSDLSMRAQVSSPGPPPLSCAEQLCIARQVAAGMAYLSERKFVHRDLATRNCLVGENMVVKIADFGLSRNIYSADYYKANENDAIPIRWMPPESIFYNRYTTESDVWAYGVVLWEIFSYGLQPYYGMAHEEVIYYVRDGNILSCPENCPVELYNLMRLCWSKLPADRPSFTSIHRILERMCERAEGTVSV
T2 sequence (Q13705 190-480 limits assumed): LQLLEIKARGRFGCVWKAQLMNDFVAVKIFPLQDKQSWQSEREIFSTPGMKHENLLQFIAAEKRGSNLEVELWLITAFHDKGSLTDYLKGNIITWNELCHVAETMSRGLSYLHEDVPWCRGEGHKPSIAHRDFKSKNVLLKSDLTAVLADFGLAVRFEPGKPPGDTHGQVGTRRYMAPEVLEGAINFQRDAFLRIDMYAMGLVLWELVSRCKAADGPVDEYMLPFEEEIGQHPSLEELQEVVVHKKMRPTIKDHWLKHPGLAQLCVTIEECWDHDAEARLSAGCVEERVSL
T11 sequence (Q07002 whole entry): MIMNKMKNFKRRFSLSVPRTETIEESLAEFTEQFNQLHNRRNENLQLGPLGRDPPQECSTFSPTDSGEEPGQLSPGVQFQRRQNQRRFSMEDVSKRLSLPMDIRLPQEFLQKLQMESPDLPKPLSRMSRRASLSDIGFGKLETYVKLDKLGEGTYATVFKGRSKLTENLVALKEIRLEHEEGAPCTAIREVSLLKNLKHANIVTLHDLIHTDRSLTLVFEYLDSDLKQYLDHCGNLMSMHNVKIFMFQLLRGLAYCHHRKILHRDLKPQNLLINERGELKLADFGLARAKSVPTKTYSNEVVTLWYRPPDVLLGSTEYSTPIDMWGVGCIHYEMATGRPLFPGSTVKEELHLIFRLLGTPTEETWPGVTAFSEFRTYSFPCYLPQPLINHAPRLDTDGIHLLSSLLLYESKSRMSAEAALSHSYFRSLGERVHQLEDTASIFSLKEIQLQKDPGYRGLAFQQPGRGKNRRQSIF
T13 sequence (Q15349 415-672 limits assumed): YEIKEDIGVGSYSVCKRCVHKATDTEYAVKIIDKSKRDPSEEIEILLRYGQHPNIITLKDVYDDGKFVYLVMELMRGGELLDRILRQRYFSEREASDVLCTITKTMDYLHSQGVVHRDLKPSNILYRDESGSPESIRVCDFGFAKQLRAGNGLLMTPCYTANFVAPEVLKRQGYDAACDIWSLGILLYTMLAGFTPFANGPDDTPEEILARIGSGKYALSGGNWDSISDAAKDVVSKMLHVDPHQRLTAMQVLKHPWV
T9 sequence (Q8TD19 whole entry): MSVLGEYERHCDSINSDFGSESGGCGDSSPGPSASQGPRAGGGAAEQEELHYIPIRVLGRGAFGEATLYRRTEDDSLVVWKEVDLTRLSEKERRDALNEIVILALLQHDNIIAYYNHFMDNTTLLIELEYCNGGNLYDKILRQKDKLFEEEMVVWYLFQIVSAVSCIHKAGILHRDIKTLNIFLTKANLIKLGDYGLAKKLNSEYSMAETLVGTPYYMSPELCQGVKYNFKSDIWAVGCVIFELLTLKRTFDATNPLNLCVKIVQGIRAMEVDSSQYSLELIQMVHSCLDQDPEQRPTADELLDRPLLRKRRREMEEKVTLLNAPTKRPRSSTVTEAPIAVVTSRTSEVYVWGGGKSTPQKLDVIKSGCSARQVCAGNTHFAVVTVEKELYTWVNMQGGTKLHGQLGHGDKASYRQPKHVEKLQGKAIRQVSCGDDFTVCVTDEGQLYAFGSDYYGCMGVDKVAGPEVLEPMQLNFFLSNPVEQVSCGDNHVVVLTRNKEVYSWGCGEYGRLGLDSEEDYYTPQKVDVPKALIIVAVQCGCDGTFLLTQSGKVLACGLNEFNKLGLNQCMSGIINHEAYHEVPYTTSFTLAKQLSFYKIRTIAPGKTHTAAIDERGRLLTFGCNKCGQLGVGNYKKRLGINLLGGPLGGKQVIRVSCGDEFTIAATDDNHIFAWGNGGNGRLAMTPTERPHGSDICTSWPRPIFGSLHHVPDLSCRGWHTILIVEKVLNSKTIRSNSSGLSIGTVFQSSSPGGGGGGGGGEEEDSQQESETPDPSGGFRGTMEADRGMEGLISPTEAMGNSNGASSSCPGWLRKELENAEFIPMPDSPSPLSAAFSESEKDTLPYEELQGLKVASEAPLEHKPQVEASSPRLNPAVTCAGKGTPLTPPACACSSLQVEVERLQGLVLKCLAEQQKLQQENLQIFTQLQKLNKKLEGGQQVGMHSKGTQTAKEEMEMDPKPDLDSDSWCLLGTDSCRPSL
T12 sequence (Q8TBX8 whole entry): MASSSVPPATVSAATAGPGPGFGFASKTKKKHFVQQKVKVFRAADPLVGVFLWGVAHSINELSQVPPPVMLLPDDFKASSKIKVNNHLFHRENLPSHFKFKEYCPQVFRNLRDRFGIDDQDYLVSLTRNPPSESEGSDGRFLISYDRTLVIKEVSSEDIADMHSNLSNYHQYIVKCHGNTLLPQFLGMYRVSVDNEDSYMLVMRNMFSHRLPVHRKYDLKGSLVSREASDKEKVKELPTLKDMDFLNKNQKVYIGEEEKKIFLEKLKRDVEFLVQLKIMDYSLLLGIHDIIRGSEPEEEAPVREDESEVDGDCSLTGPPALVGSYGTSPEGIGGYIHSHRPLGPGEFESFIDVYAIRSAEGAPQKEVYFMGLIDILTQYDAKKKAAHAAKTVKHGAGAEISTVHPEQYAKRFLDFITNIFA
T7 sequence (Q8IW41 whole entry): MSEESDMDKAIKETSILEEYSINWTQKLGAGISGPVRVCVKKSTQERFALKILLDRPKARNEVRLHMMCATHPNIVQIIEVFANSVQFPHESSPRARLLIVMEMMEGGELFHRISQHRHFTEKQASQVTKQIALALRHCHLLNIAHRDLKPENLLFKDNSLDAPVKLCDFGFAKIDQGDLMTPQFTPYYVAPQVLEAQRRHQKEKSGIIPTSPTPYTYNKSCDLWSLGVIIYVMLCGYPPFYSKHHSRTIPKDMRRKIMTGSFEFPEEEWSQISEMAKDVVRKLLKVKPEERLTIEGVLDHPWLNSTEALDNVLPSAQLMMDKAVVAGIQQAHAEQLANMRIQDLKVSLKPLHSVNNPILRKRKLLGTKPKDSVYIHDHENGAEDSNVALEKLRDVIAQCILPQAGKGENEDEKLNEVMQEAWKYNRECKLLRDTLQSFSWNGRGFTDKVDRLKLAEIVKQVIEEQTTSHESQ
T1 sequence (P00519 242-493 F317I limits assumed): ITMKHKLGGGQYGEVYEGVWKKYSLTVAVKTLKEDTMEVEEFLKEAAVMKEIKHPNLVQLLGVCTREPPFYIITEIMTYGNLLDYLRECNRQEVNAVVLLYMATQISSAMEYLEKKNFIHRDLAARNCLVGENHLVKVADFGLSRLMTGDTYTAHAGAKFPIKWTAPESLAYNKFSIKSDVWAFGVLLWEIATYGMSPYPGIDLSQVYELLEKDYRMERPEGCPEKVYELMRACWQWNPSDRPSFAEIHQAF

Take `CCc1ccc2c(c1)C1(NN=C(c3cccc4ccccc34)S1)C(=O)N2` (stereo not shown) [OGM1, 5-ethyl-5′-naphthalen-1-ylspiro[1H-indole-3,2′-3H-1,3,4-thiadiazole]-2-one]: the remaining binding at 10 µM in assay [1] was determined as 100%; at ACVR2B it was 100%; on AURKA it was 100%; on AURKC, 100%; at CAMK1, 50%; on CDKL5, 85%. Moreover, the remaining binding at 10 µM at MAP4K3 stood at 100%; on MAPKAPK5, 86%; on MUSK, 90%; on NEK9 it was 100%; at PCTK2, 100%; on PCTK3 it was 99%. Moreover, the remaining binding at 10 µM at PIP5K2C stood at 100%; in [2], 54%. The Antagonism at GPR54 (10 uM) is −5.8. Further, the Agonism on GPR54 (12.5 uM) is −0.6.
`CCc1ccc2c(c1)C1(NN=C(c3ccccc3)S1)C(=O)N2` (stereo not shown) [OGM2]: the Class entry in the assay on HeLa is “Mildly”; in the assay with HeLa (Table 13), “Low”. The “% Survival 2 μM OGM” value in the assay with HeLa (72 hours) is given as 91.5%; in the assay with A549 [3], 33.6%. Also, the figures for the “% Survival 10 μM OGM” value in the assay with HeLa (72 hours) and with A549 [3] were 68.0% and 18.0%, respectively. The CC50 in the assay with HeLa (Homo sapiens, HeLa, 72 hours, read-out: LC50 (the source's name)) was > 10 µM; in the assay on A549 [3] (Homo sapiens, A549, read-out: LC50 (the source's name)), < 2 µM. In the assay on A549 [4], the “CDI, lipid peroxidation” value is < 0.232.
